Test results from patent US12565510B2, “Phospholipid” (NIPPON FINE CHEMICAL CO., LTD., priority 2021, dated 2026).

What was measured:
[1] = siRNA encapsulation efficiency of lipid particles (RiboGreen reagent); format: physicochemical; conditions: siRNA-containing lipid particles made with the named phospholipid A; siRNA/lipid molar ratio 1/7000; with or without 2% Triton-X 100
Experimental: (§1) siRNA was added to 1 mM citrate buffer (pH 4.0), thereby preparing an acidic aqueous solution of siRNA (25° C., siRNA concentration: 301.2 nM). Separately, lipids were added to ethanol, thereby preparing a phospholipid alcohol solution (25° C., lipid concentration: 2.5 mM). The molar ratios of lipids were (1) DHSM-DEDA:DHSM:cholesterol (Chol)=45:10:45, (2) DHSM-PPZ:DOPC:cholesterol (Chol)=45:10:60, and (3) DOP-DEDA:DPPC:cholesterol (Chol)=45:10:45. A 4.15-fold volume of the acidic aqueous solution of siRNA was added to the phospholipid alcohol solution (siRNA/lipid molar ratio=1/7000), and a microchannel (KeyChem-Basic, YMC Co., Ltd.) was used to obtain lipid particles. Finally, ethanol was removed by dialysis.
Further, the encapsulation efficiency of siRNA was measured in the following manner. The measurement was performed using an RNA assay reagent (RiboGreen reagent, Thermo Fisher Scientific), specifically as described below. […] The plate was shaken for 5 minutes, and the fluorescence intensity in each well was measured. The encapsulation efficiency of siRNA in the lipid particles was calculated using the following equation: the encapsulation efficiency (%)=(the fluorescence intensity of total siRNA−the fluorescence intensity of free siRNA)/(the fluorescence intensity of total siRNA), with the measured fluorescence intensity.

[2] = Measurement of particle size and polydispersity index of lipid particles (Zetasizer Nano ZS); format: physicochemical; conditions: siRNA-containing lipid particles made with the named phospholipid A, phospholipid B and cholesterol; for PDI / Particle size (nm): diluted 50-fold with RNase-free water
Experimental: as §1
The lipid particles were diluted 50-fold with RNase-free water, and then the particle size and polydispersity index (PDI) were measured with a Zetasizer Nano ZS (Malvern). The lipid particles were also diluted 50-fold with a buffer (pH=4.0, 5.0, 6.0, or 7.0), and the ζ-potential was then measured.

siRNA encapsulation efficiency (%) [1] [%] | Particle size distribution [2] | PDI [2] | Particle size (nm) [2] [nm] | Molecule
98 ± 7 | Single peak | 0.11 ± 0.06 | 100 ± 3 | Dioleoylphosphate-Diethylenediamine Conjugate [DOP-DEDA, reference compound]
– | Double peak | 0.09 ± 0.03 | 132 ± 37 | CCCCCCCCCCCCCCCCCC(=O)N[C@@H](COP(=O)(O)OCCNCCN)[C@H](O)CCCCCCCCCCCCCCC [DHSM-DEDA, (2S,3R)-3-hydroxy-2-stearamidooctadecyl (2-(2′-aminoethylenamine)ethyl) phosphate]
80 ± 7 | Double peak | 0.16 ± 0.01 | 111 ± 4 | (2S,3R)-3-hydroxy-2-stearamidooctadecyl (2-(piperazino)ethyl) phosphate [DHSM-PPZ]
